Test results from patent US20200101034A1, “RAPID AND CONTROLLED DELIVERY OF COMPOSITIONS WITH RESTORED ENTOURAGE EFFECTS” (RECEPTOR HOLDINGS, INC., priority 2017, published 2020).
Where two headings read alike, the source gives them in different places.

What was measured:
[1] = Cannabis/SNAC oral rat pharmacokinetic (PK) study; format: in vivo, rats; conditions: for AUC(0-t) / Tmax: rat, plasma, po; for AUC(0-t): read-out: AUC0-Tlast; for Tmax: read-out: time to reach the mean maximum plasma concentration (Tmax); for AUC0-Tlast versus the cannabis alone group: rats, oral, same cannabis extract dose in the presence of SNAC (250 mg/kg or 500 mg/kg)
Protocol: Example 4. Summary of cannabis/SNAC oral rat pharmacokinetic (PK) study.
Methods. Animals were dosed on Day 1 and a series of blood samples were collected over a period of 4 hours post dose for pharmacokinetic evaluation. Animals were euthanized following collection of their last blood sample.

study participants [2] = assay: Onset and duration of action of orally administered cannabis/SNAC composition (200 mg SNAC), participant-reported euphoria/dysphoria; format: in vivo, human; conditions: 200 mg SNAC with cannabis concentrate, oral
Protocol: This study was designed to assess the utility of SNAC in enabling a rapid-acting oral form of cannabis.
Selection of Participants. Six study participants were recruited to ingest cannabis compositions and record the onset, duration, and intensity of cannabis-induced euphoria and/or dysphoria.
(§1) Formulations. The selected cannabis concentrate is commercially available and was provided to participants in an ethanol solution. The concentrate contains 8 mg THC per dose. It was selected because it contains a high percentage of THC, which provides a noticeable effect on user- reported “euphoria”.
(§2) Methods. For the Control experiment, each participant mixed the cannabis concentrate with 15 ml (one tablespoon) of aqueous ethanol, and immediately swallowed the mixture.
(§3) For both the Control experiment and the Test experiment, each participant recorded the time of dose administration, the time of onset of euphoria and/or dysphoria, and the observed level of euphoria and/or dysphoria in fifteen minute intervals for five hours following administration of the cannabis dose. Euphoria and dysphoria were reported using a scale value, in a range from 1-10.

study participants [3] = assay: Onset and duration of action of orally administered cannabis/SNAC composition at a low SNAC dose (100 mg); format: in vivo, human; conditions: 100 mg SNAC with cannabis concentrate, oral
Protocol: Example 2. […] This study was designed to assess the utility of SNAC in enabling a rapid-acting oral form of cannabis at a low dose.
Selection of Participants. Three study participants were recruited to ingest cannabis compositions and record the onset, duration, and intensity of cannabis-induced euphoria and/or dysphoria.
as §1, §2, §3
Results. The results are combined with the data from Example 1 and are reported for all participants in FIG. 8.

**Q.** With `C=C(C)[C@@H]1CCC(C)=C[C@H]1c1c(O)cc(CCCCC)cc1O` [CBD, cannabidiol] as the molecule, how does the AUC(0-t) [1] read?
**A.** 0.0132 to 0.382 µg·h/mL

**Q.** What about the Tmax [1] of the same molecule?
**A.** 0.25 to 1 h

**Q.** And the “AUC0-Tlast versus the cannabis alone group” value [1]?
**A.** comparable

**Q.** For `O=C([O-])CCCCCCCNC(=O)c1ccccc1O.[Na+]` [SNAC, sodium N-[8-(2-hydroxybenzoyl)amino] caprylate], which “effect of the absorption enhancer on the duration of action of cannabis” value (study participants [2]) is on record?
**A.** no effect

**Q.** And the “effect of the absorption enhancer on the duration of action of cannabis” value (study participants [3])?
**A.** no effect

**Q.** With `CCCCCc1cc(O)c2c(c1)OC(C)(C)[C@@H]1CCC(C)=C[C@@H]21` [THC, delta-9-tetrahydrocannabinol] as the molecule, how does the Tmax ([1]; 25 mg/kg) read?
**A.** 1 h

**Q.** And the Tmax ([1]; 50 mg/kg)?
**A.** 2 h

**Q.** And the AUC(0-t) [1]?
**A.** 0.171 to 1.26 µg·h/mL

**Q.** And the “AUC0-Tlast versus the cannabis alone group” value [1]?
**A.** comparable
